EP0726263A2, “Herbicidal (1,3,4)oxadiazoles and thiadiazoles” (American Cyanamid Company, priority 1995, dated 1996)

What was measured:
Type in all cases: in vivo
Abutilon theophrasti [1] = assay: Herbicidal activity, preemergence test; conditions: pre; sprayed onto soil, 800 g of active material per hectare; evaluated 3 weeks after treatment
Method: (§1) To evaluate their herbicidal activity, compounds according to the invention are tested using a representative range of plants: TRZAW Triticum aestivum HORVW Hordeum vulgare ZEAMX Zea mays GOSHI Gossypium hirsutum HELAN Helianthus annuus GLYMA Glycine max ALOMY Alopecurus myosuroides SETVI Setaria viridis ECHCG Echinochloa crus-galli GALAP Galium aparine STEME Stellaria media VERPE Veronica persica VIOAR Viola arvensis IPOHE Ipomoea hederacea LAMPU Lamium purpureum PAPRH Papaver rhoeas MATIN Matricaria inodora AMARE Amaranthus retroflexus ABUTH Abutilon theophrasti AMBEL Ambrosia artemisifolia CHEAL Chenopodium album
(§2) The tests fall into two categories, preemergence and postemergence. The preemergence tests involve spraying a liquid formulation of the compound onto the soil in which the seeds have recently been sown. The postemergence tests involve spraying a liquid formulation of the compound onto seedling plants.
(§3) The soil used in the tests is a prepared horticultural loam.
(§4) The formulations used in the tests are prepared from solutions of the test compounds in acetone containing 0.4% by weight of an alkylphenol/ethylene oxide condensate available under the trade mark TRITON X-155. These acetone solutions are diluted with water and the resulting formulations applied at dosage levels corresponding to 800 g of active material per hectare in a volume equivalent to 900 litres per hectare.
(§5) In the preemergence tests untreated sown soil and in the postemergence tests untreated soil bearing seedling plants are used as controls.
(§6) Results of herbicide evaluation are expressed on a rating scale (0-9). The scale is based upon a visual observation of plant stand, vigor, malformation, size, chlorosis, and general plant appearance as compared to a control. Preemergence and postemergence treatments are evaluated at 3 and 2 weeks after treatment, respectively.

Alopecurus myosuroides [2] = assay: Herbicidal activity, preemergence test; conditions: pre; sprayed onto soil, 800 g of active material per hectare; evaluated 3 weeks after treatment
Method: as §1, §2, §3, §4, §5, §6

Amaranthus retroflexus [3] = assay: Herbicidal activity, preemergence test; conditions: pre; sprayed onto soil, 800 g of active material per hectare; evaluated 3 weeks after treatment
Method: as §1, §2, §3, §4, §5, §6

Ambrosia artemisifolia [4] = assay: Herbicidal activity, preemergence test; conditions: pre; sprayed onto soil, 800 g of active material per hectare; evaluated 3 weeks after treatment
Method: as §1, §2, §3, §4, §5, §6

Chenopodium album [5] = assay: Herbicidal activity, preemergence test; conditions: pre; sprayed onto soil, 800 g of active material per hectare; evaluated 3 weeks after treatment
Method: as §1, §2, §3, §4, §5, §6

Galium aparine [6] = assay: Herbicidal activity, preemergence test; conditions: pre; sprayed onto soil, 800 g of active material per hectare; evaluated 3 weeks after treatment
Method: as §1, §2, §3, §4, §5, §6

Glycine max [7] = assay: Herbicidal activity, preemergence test; conditions: pre; sprayed onto soil, 800 g of active material per hectare; evaluated 3 weeks after treatment
Method: as §1, §2, §3, §4, §5, §6

Gossypium hirsutum [8] = assay: Herbicidal activity, preemergence test; conditions: pre; sprayed onto soil, 800 g of active material per hectare; evaluated 3 weeks after treatment
Method: as §1, §2, §3, §4, §5, §6

Hordeum vulgare [9] = assay: Herbicidal activity, preemergence test; conditions: pre; sprayed onto soil, 800 g of active material per hectare; evaluated 3 weeks after treatment
Method: as §1, §2, §3, §4, §5, §6

Ipomoea hederacea [10] = assay: Herbicidal activity, preemergence test; conditions: pre; sprayed onto soil, 800 g of active material per hectare; evaluated 3 weeks after treatment
Method: as §1, §2, §3, §4, §5, §6

Lamium purpureum [11] = assay: Herbicidal activity, preemergence test; conditions: pre; sprayed onto soil, 800 g of active material per hectare; evaluated 3 weeks after treatment
Method: as §1, §2, §3, §4, §5, §6

Matricaria inodora [12] = assay: Herbicidal activity, preemergence test; conditions: pre; sprayed onto soil, 800 g of active material per hectare; evaluated 3 weeks after treatment
Method: as §1, §2, §3, §4, §5, §6

Papaver rhoeas [13] = assay: Herbicidal activity, preemergence test; conditions: pre; sprayed onto soil, 800 g of active material per hectare; evaluated 3 weeks after treatment
Method: as §1, §2, §3, §4, §5, §6

Setaria viridis [14] = assay: Herbicidal activity, preemergence test; conditions: pre; sprayed onto soil, 800 g of active material per hectare; evaluated 3 weeks after treatment
Method: as §1, §2, §3, §4, §5, §6

Stellaria media [15] = assay: Herbicidal activity, preemergence test; conditions: pre; sprayed onto soil, 800 g of active material per hectare; evaluated 3 weeks after treatment
Method: as §1, §2, §3, §4, §5, §6

Triticum aestivum [16] = assay: Herbicidal activity, preemergence test; conditions: pre; sprayed onto soil, 800 g of active material per hectare; evaluated 3 weeks after treatment
Method: as §1, §2, §3, §4, §5, §6

Veronica persica [17] = assay: Herbicidal activity, preemergence test; conditions: pre; sprayed onto soil, 800 g of active material per hectare; evaluated 3 weeks after treatment
Method: as §1, §2, §3, §4, §5, §6

Zea mays [18] = assay: Herbicidal activity, preemergence test; conditions: pre; sprayed onto soil, 800 g of active material per hectare; evaluated 3 weeks after treatment
Method: as §1, §2, §3, §4, §5, §6

Abutilon theophrasti [19] = assay: Herbicidal activity, postemergence test; conditions: post; sprayed onto seedling plants, 800 g of active material per hectare; evaluated 2 weeks after treatment
Method: as §1, §2, §3, §4, §5, §6

Alopecurus myosuroides [20] = assay: Herbicidal activity, postemergence test; conditions: post; sprayed onto seedling plants, 800 g of active material per hectare; evaluated 2 weeks after treatment
Method: as §1, §2, §3, §4, §5, §6

Amaranthus retroflexus [21] = assay: Herbicidal activity, postemergence test; conditions: post; sprayed onto seedling plants, 800 g of active material per hectare; evaluated 2 weeks after treatment
Method: as §1, §2, §3, §4, §5, §6

Ambrosia artemisifolia [22] = assay: Herbicidal activity, postemergence test; conditions: post; sprayed onto seedling plants, 800 g of active material per hectare; evaluated 2 weeks after treatment
Method: as §1, §2, §3, §4, §5, §6

Chenopodium album [23] = assay: Herbicidal activity, postemergence test; conditions: post; sprayed onto seedling plants, 800 g of active material per hectare; evaluated 2 weeks after treatment
Method: as §1, §2, §3, §4, §5, §6

Galium aparine [24] = assay: Herbicidal activity, postemergence test; conditions: post; sprayed onto seedling plants, 800 g of active material per hectare; evaluated 2 weeks after treatment
Method: as §1, §2, §3, §4, §5, §6

Glycine max [25] = assay: Herbicidal activity, postemergence test; conditions: post; sprayed onto seedling plants, 800 g of active material per hectare; evaluated 2 weeks after treatment
Method: as §1, §2, §3, §4, §5, §6

Gossypium hirsutum [26] = assay: Herbicidal activity, postemergence test; conditions: post; sprayed onto seedling plants, 800 g of active material per hectare; evaluated 2 weeks after treatment
Method: as §1, §2, §3, §4, §5, §6

Hordeum vulgare [27] = assay: Herbicidal activity, postemergence test; conditions: post; sprayed onto seedling plants, 800 g of active material per hectare; evaluated 2 weeks after treatment
Method: as §1, §2, §3, §4, §5, §6

Ipomoea hederacea [28] = assay: Herbicidal activity, postemergence test; conditions: post; sprayed onto seedling plants, 800 g of active material per hectare; evaluated 2 weeks after treatment
Method: as §1, §2, §3, §4, §5, §6

Lamium purpureum [29] = assay: Herbicidal activity, postemergence test; conditions: post; sprayed onto seedling plants, 800 g of active material per hectare; evaluated 2 weeks after treatment
Method: as §1, §2, §3, §4, §5, §6

Matricaria inodora [30] = assay: Herbicidal activity, postemergence test; conditions: post; sprayed onto seedling plants, 800 g of active material per hectare; evaluated 2 weeks after treatment
Method: as §1, §2, §3, §4, §5, §6

Papaver rhoeas [31] = assay: Herbicidal activity, postemergence test; conditions: post; sprayed onto seedling plants, 800 g of active material per hectare; evaluated 2 weeks after treatment
Method: as §1, §2, §3, §4, §5, §6

Setaria viridis [32] = assay: Herbicidal activity, postemergence test; conditions: post; sprayed onto seedling plants, 800 g of active material per hectare; evaluated 2 weeks after treatment
Method: as §1, §2, §3, §4, §5, §6

Stellaria media [33] = assay: Herbicidal activity, postemergence test; conditions: post; sprayed onto seedling plants, 800 g of active material per hectare; evaluated 2 weeks after treatment
Method: as §1, §2, §3, §4, §5, §6

Triticum aestivum [34] = assay: Herbicidal activity, postemergence test; conditions: post; sprayed onto seedling plants, 800 g of active material per hectare; evaluated 2 weeks after treatment
Method: as §1, §2, §3, §4, §5, §6

Veronica persica [35] = assay: Herbicidal activity, postemergence test; conditions: post; sprayed onto seedling plants, 800 g of active material per hectare; evaluated 2 weeks after treatment
Method: as §1, §2, §3, §4, §5, §6

Zea mays [36] = assay: Herbicidal activity, postemergence test; conditions: post; sprayed onto seedling plants, 800 g of active material per hectare; evaluated 2 weeks after treatment
Method: as §1, §2, §3, §4, §5, §6

SMILES | ABUTH control rating (0-9) (Abutilon theophrasti [1]) | ALOMY control rating (0-9) (Alopecurus myosuroides [2]) | AMARE control rating (0-9) (Amaranthus retroflexus [3]) | AMBEL control rating (0-9) (Ambrosia artemisifolia [4]) | CHEAL control rating (0-9) (Chenopodium album [5]) | GALAP control rating (0-9) (Galium aparine [6]) | GLXMA control rating (0-9) (Glycine max [7]) | GOSHI control rating (0-9) (Gossypium hirsutum [8]) | HORVW control rating (0-9) (Hordeum vulgare [9]) | IPOHE control rating (0-9) (Ipomoea hederacea [10]) | LAMPU control rating (0-9) (Lamium purpureum [11]) | MATIN control rating (0-9) (Matricaria inodora [12]) | PAPRH control rating (0-9) (Papaver rhoeas [13]) | SETVI control rating (0-9) (Setaria viridis [14]) | STEME control rating (0-9) (Stellaria media [15]) | TRZAW control rating (0-9) (Triticum aestivum [16]) | VERPE control rating (0-9) (Veronica persica [17]) | ZEAMX control rating (0-9) (Zea mays [18]) | ABUTH control rating (0-9) (Abutilon theophrasti [19]) | ALOMY control rating (0-9) (Alopecurus myosuroides [20]) | further results
O=C(NCc1cccs1)c1nnc(-c2ccccc2F)o1 [Example 11] | 0 (no effect) | 0 (no effect) | 7 (good herbicidal effect) | 0 (no effect) | 3 (moderate effect) | 0 (no effect) | 0 (no effect) | 0 (no effect) | 0 (no effect) | 0 (no effect) | 0 (no effect) | 2 (slight effect) | 8 (approaching complete kill) | 3 (moderate effect) | 7 (good herbicidal effect) | 0 (no effect) | 7 (good herbicidal effect) | 1 (trace effect) | 5 (definite injury) | 0 (no effect) | AMARE control rating (0-9) (Amaranthus retroflexus [21]): 9 (complete kill); AMBEL control rating (0-9) (Ambrosia artemisifolia [22]): 4 (injury); CHEAL control rating (0-9) (Chenopodium album [23]): 8 (approaching complete kill); GALAP control rating (0-9) (Galium aparine [24]): 0 (no effect); GLXMA control rating (0-9) (Glycine max [25]): 0 (no effect); GOSHI control rating (0-9) (Gossypium hirsutum [26]): 1 (trace effect); HORVW control rating (0-9) (Hordeum vulgare [27]): 0 (no effect); IPOHE control rating (0-9) (Ipomoea hederacea [28]): 0 (no effect); LAMPU control rating (0-9) (Lamium purpureum [29]): 0 (no effect); MATIN control rating (0-9) (Matricaria inodora [30]): 0 (no effect); PAPRH control rating (0-9) (Papaver rhoeas [31]): 7 (good herbicidal effect); SETVI control rating (0-9) (Setaria viridis [32]): 0 (no effect); STEME control rating (0-9) (Stellaria media [33]): 7 (good herbicidal effect); TRZAW control rating (0-9) (Triticum aestivum [34]): 0 (no effect); VERPE control rating (0-9) (Veronica persica [35]): 6 (herbicidal effect); ZEAMX control rating (0-9) (Zea mays [36]): 0 (no effect)
C[C@H](NC(=O)c1nnc(-c2ccc(Cl)cc2)o1)c1ccccc1 [Example 12] | 2 (slight effect) | 1 (trace effect) | 8 (approaching complete kill) | 0 (no effect) | 8 (approaching complete kill) | 0 (no effect) | 0 (no effect) | 0 (no effect) | 0 (no effect) | 0 (no effect) | 8 (approaching complete kill) | 7 (good herbicidal effect) | 9 (complete kill) | 9 (complete kill) | 9 (complete kill) | 0 (no effect) | 9 (complete kill) | 0 (no effect) | 9 (complete kill) | 3 (moderate effect) | AMARE control rating (0-9) (Amaranthus retroflexus [21]): 9 (complete kill); AMBEL control rating (0-9) (Ambrosia artemisifolia [22]): 7 (good herbicidal effect); CHEAL control rating (0-9) (Chenopodium album [23]): 9 (complete kill); GALAP control rating (0-9) (Galium aparine [24]): 6 (herbicidal effect); GLXMA control rating (0-9) (Glycine max [25]): 5 (definite injury); GOSHI control rating (0-9) (Gossypium hirsutum [26]): 9 (complete kill); HORVW control rating (0-9) (Hordeum vulgare [27]): 4 (injury); IPOHE control rating (0-9) (Ipomoea hederacea [28]): 9 (complete kill); LAMPU control rating (0-9) (Lamium purpureum [29]): 9 (complete kill); MATIN control rating (0-9) (Matricaria inodora [30]): 5 (definite injury); PAPRH control rating (0-9) (Papaver rhoeas [31]): 9 (complete kill); SETVI control rating (0-9) (Setaria viridis [32]): 9 (complete kill); STEME control rating (0-9) (Stellaria media [33]): 9 (complete kill); TRZAW control rating (0-9) (Triticum aestivum [34]): 2 (slight effect); VERPE control rating (0-9) (Veronica persica [35]): 9 (complete kill); ZEAMX control rating (0-9) (Zea mays [36]): 3 (moderate effect)
